Source: US20210290597A1, “METHOD OF TREATING A CONDITION ASSOCIATED WITH NEURODEGENERATION USING INHIBITORS OF OAT3” (Neuropore Therapies, Inc., priority 2018, published 2021)
Where two headings read alike, the source gives them in different places.

Columns and labels:
monomeric ASYN = experiment: Monomeric ASYN in brain homogenates, L61 ASYN transgenic mice (ProteinSimple western); assay type: in vivo; settings: 1, 5 or 10 mg/kg per day i.p., 1 month
Protocol: Multiple in vivo administration studies of Compound 1 were carried out in the Line 61 (L61) mThy1-alpha-synuclein transgenic mouse model of Parkinson's disease (PD). The mThy1-alpha-synuclein transgenic mouse model overexpresses wild-type human ASYN under the Thy-1 promoter (commonly referred to as Line 61 transgenic mice; Rockenstein et al., 2002). […]
Alpha-synuclein (ASYN) is a neuronal protein whose dysregulation has been implicated in the pathogenesis of PD. The effects of Compound 1 on alpha-synuclein aggregation were assessed in both L61 ASYN transgenic and non-transgenic mice in a 1 month administration study. […] At the end of one month, the mice were sacrificed, and immunohistochemical (IHC) detection of total alpha-synuclein deposits, insoluble alpha-synuclein deposits (PK+resistant), microtubule-associated protein 1A/1B-light chain 3 (LC3), and monomeric alpha-synuclein levels were assessed in the harvested brain tissues.
Biochemical evaluations were conducted using a ProteinSimple© western biochemical evaluation. Briefly, samples were mixed with pre-calculated volumes of 0.1× Sample Buffer and 5× Fluorescent Master Mix to make a final sample concentration of 0.4 mg/mL in 10 μL solution for signal optimization and evaporation reduction. […]

human transporter OAT3 = target: T1, human transporter OAT3 (Homo sapiens, UniProt Q8TCC7); experiment: Further OAT3 uptake inhibition assay (Table 2); assay type: cell-based; settings: compound 0.03-10 μM
T1 construct: expressed in transfected cells; host or cells: MDCK-II
T1 sequence (Q8TCC7 1-542): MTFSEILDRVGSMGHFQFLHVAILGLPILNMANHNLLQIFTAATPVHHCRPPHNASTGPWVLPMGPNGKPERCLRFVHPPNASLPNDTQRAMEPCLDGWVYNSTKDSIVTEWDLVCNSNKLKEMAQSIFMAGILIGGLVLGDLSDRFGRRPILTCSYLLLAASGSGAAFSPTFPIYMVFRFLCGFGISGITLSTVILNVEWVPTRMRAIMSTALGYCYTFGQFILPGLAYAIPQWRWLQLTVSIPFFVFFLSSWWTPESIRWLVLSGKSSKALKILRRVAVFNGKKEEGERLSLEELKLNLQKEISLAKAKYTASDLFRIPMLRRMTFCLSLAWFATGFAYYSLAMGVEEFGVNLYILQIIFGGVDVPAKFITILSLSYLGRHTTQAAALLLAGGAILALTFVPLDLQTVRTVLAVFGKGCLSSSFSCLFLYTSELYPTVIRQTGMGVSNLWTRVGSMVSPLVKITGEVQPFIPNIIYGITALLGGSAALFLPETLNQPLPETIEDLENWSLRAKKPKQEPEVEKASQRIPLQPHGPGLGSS
Protocol: (§1) In a further assay, the effects of several other compounds (including compounds 2, 3, and 4) were assessed against OAT3. The assay was carried out using a similar procedure as described above, using para-aminohippurate (PAH) and estrone-3-sulfate (E3S) as the substrates for measuring OAT3-mediated transport. […] MDCK-II cells were grown in 96-well cell culture plates, and the cell plates are maintained at 37° C. in 5% CO2 atmosphere prior to initiation of the transport experiment. MDCK-II cells were maintained in DMEM with low glucose and 10% FBS. Cells passages up to 40 are seeded at 60K±10K cells/well on 96-well, transwell membrane plates approximately 24 hours before transfection. Transport assays were carried out approximately 48 hours after transfection. Radio-labeled para-aminohippurate ([3H]-PAH) and estrone-3-sulfate (E3S) were used as substrates for measuring OAT3-mediated transport, where the transport of the substrate was determined by radiometric detection. Probenecid was used as a reference inhibitor. Transport study samples were run in triplicate.
(§2) For uptake assays, the net transporter-mediated uptake rate (V) of the substrate by each SLC transporter was calculated as follows:
(§3) Transporter-mediated uptake rate(pmol/min/cm^2)=((Cellular accumulation in cells expressing the transporter)−(Mean cellular accumulation in control cells))/Incubation time.
(§4) Percent inhibition was calculated by dividing the transporter-mediated uptake rate in presence of the test article or the reference inhibitor by the transporter-mediated uptake rate in presence of vehicle control:
(§5) Percent inhibition=100−(100×(transporter-mediated uptake rate)with inhibitor/(transporter-mediated uptake rate)vehicle control)
(§6) For uptake assays, statistical analyses using an unpaired t test was performed between transporter-mediated uptake rate or ATP-dependent transport rate of probe substrate with vehicle control and the inhibitor. A p value of <0.05 was considered statistically significant.
(§7) Table 2 summarizes the inhibitory activity of these compounds against OAT3 in the uptake of probe substrate PAH (p-aminohippurate) or E3S (estrone-3-sulfate). The percent inhibition values were determined by testing compounds at a single concentration of 1 μM with a PAH concentration of 10 μM. Data represent the mean and standard deviation of triplicate samples. The IC50 values were calculated by means of a concentration response curve with a compound concentration range of 0.03-10 μM and a probe substrate concentration of 10 μM PAH or 0.1 μM E3S. The percent inhibition at the various concentrations was run in triplicate and the IC50 value was determined by non-linear regression using GraphPad Prism.

OAT3 = target: T2, OAT3 (Homo sapiens, UniProt Q8TCC7); experiment: Further OAT3 uptake inhibition assay (Table 2); assay type: cell-based; settings: human, MDCK-II cells expressing human OAT3, probe 10 μM PAH (p-aminohippurate); compound 1 μM; PAH 10 μM; mean and SD of triplicate
T2 construct: expressed in transfected cells; host or cells: MDCK-II
T2 sequence (Q8TCC7 1-542): T1 sequence (Q8TCC7 1-542)
Protocol: as §1, §2, §3, §4, §5, §6, §7

Structure (SMILES): O=S(=O)(c1ccc(-n2cn[nH]c2=S)cc1)c1ccc(Cl)c(C(F)(F)F)c1 [Compound 1, 4-(4-((4-chloro-3-(trifluoromethyl)phenyl)sulfonyl)phenyl)-2,4-dihydro-3H-1,2,4-triazole-3-thione]
- cortical and hippocampal levels of monomeric ASYN in cytosolic fraction of brain homogenates (monomeric ASYN): reduced
- IC50 (human transporter OAT3; 0.1 μM E3S, read-out: OAT3 inhibition substrate = E3S (IC50)): 891 nM
- IC50 (human transporter OAT3; 10 μM PAH, read-out: OAT3 inhibition substrate = PAH (IC50)): 252 nM
- inhibition at 1 μM (OAT3): 80.3%
